Data taken from PubChem BioAssay AID1918954 (Molecular Pharmacology Branch, DTP, NCI, 2023).

Test system: MDA-MB-468 complex spheroids with HUVEC/MSC, viability
Assay: Anticancer human tumor MDA-MB-468 cell line growth inhibition;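 note: spheroids exposed to agents for seven days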;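 for viability, T/C: 100% = DMSO vehicle control viability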
Conditions: for IC50: curve of first compound; for viability, T/C: stronger effect = lower value
Outline: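 Multicellular complex spheroids of tumor cells with human endothelial cells (HUVEC) and mesenchymal stem cells; the LSD1 inhibitor iadademstat was combined with standard-of-care or investigational agents. Top concentration at or near clinical Cmax, half-log dilutions; final DMSO ≤0.25%.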

For `Nc1ccccc1NC(=O)c1ccc(CNC(=O)OCc2cccnc2)cc1` + NC1CCC(NC2CC2c2ccccc2)CC1, the IC50 (second compound 0.1 µM) was 170 nM, the IC50 (second compound 0.316 µM) was 140 nM and the IC50 (second compound 1 µM) was 127 nM. For the same molecule, the IC50 (second compound 3.16 µM) was 143 nM, the IC50 (second compound 10 µM) was 111 nM and the viability, T/C (second compound 0.1 µM, first compound 0.00949 µM) was 97.4%. For the same molecule, the viability, T/C (second compound 0.1 µM, first compound 0.03 µM) was 106%, the viability, T/C (second compound 0.1 µM, first compound 0.0949 µM) was 87.2% and the viability, T/C (second compound 0.1 µM, first compound 0.3 µM) was 13.9%. For the same molecule, the viability, T/C (second compound 0.1 µM, first compound 0.949 µM) was 3.13%, the viability, T/C (second compound 0.1 µM, first compound 3 µM) was 1.48% and the viability, T/C (second compound 0.316 µM, first compound 0.00949 µM) was 102%. The viability, T/C (second compound 0.316 µM, first compound 0.03 µM) was 103%, the viability, T/C (second compound 0.316 µM, first compound 0.0949 µM) was 67.7% and the viability, T/C (second compound 0.316 µM, first compound 0.3 µM) was 14.6%. It also gave a viability, T/C (second compound 0.316 µM, first compound 0.949 µM) of 3.32%, a viability, T/C (second compound 0.316 µM, first compound 3 µM) of 0.9% and a viability, T/C (second compound 1 µM, first compound 0.00949 µM) of 89.1%. The viability, T/C (second compound 1 µM, first compound 0.03 µM) was 90.3%, the viability, T/C (second compound 1 µM, first compound 0.0949 µM) was 61.2% and the viability, T/C (second compound 1 µM, first compound 0.3 µM) was 15.9%. For the same molecule, the viability, T/C (second compound 1 µM, first compound 0.949 µM) was 2.93%, the viability, T/C (second compound 1 µM, first compound 3 µM) was 1.42% and the viability, T/C (second compound 3.16 µM, first compound 0.00949 µM) was 80.8%. The viability, T/C (second compound 3.16 µM, first compound 0.03 µM) was 83.7%, the viability, T/C (second compound 3.16 µM, first compound 0.0949 µM) was 69.6% and the viability, T/C (second compound 3.16 µM, first compound 0.3 µM) was 14.9%. For the same molecule, the viability, T/C (second compound 3.16 µM, first compound 0.949 µM) was 3.07%, the viability, T/C (second compound 3.16 µM, first compound 3 µM) was 1.04% and the viability, T/C (second compound 10 µM, first compound 0.00949 µM) was 59.9%. It also gave a viability, T/C (second compound 10 µM, first compound 0.03 µM) of 61%, a viability, T/C (second compound 10 µM, first compound 0.0949 µM) of 56% and a viability, T/C (second compound 10 µM, first compound 0.3 µM) of 13.4%. For the same molecule, the viability, T/C (second compound 10 µM, first compound 0.949 µM) was 3.05% and the viability, T/C (second compound 10 µM, first compound 3 µM) was 1.52%.
